Experimental data published in ChEMBL document CHEMBL1201862, “PubChem BioAssay data set” (2004).
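Step 1: Grow cells in 96-well plates. Step 2: Expose to compound for 48 hours at 5 concentrations. Step 3: Interpolate endpoints linearly; if unreached, use highest concentration. GI50 is the concentration that inhibits growth by half.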 The source made the active and inactive calls. No stated cut-off is given here; in the data, active = GI50 up to about 1.1 µM and inactive = higher.

What was measured:
Experiment in all cases: NCI anticancer screen, dose series, 48 h
786-0 = test system: 786-0
A549 = test system: A549
ACHN = test system: ACHN
CAKI-1 = test system: CAKI-1
CCRF-CEM = test system: CCRF-CEM
COLO 205 = test system: COLO 205
DLD-1 = test system: DLD-1
DMS-273 = test system: DMS-273
EKVX = test system: EKVX
HCC 2998 = test system: HCC 2998
HCT-116 = test system: HCT-116
HCT-15 = test system: HCT-15
HL-60 = test system: HL-60
HOP-18 = test system: HOP-18
HOP-62 = test system: HOP-62
HOP-92 = test system: HOP-92
HT-29 = test system: HT-29
IGROV-1 = test system: IGROV-1
K562 = test system: K562
KM-20L2 = test system: KM-20L2
KM12 = test system: KM12
LOX IMVI = test system: LOX IMVI
LXFL 529 = test system: LXFL 529
M14 = test system: M14
M19-MEL = test system: M19-MEL
MOLT-4 = test system: MOLT-4
Malme-3M = test system: Malme-3M
NCI-H226 = test system: NCI-H226
NCI-H23 = test system: NCI-H23
NCI-H460 = test system: NCI-H460
NCI-H522 = test system: NCI-H522
OVCAR-3 = test system: OVCAR-3
OVCAR-4 = test system: OVCAR-4
OVCAR-5 = test system: OVCAR-5
OVCAR-8 = test system: OVCAR-8
RPMI-8226 = test system: RPMI-8226
RXF 393 = test system: RXF 393
RXF 631 = test system: RXF 631
SF-268 = test system: SF-268
SF-295 = test system: SF-295
SF-539 = test system: SF-539
SK-MEL-28 = test system: SK-MEL-28
SK-MEL-2 = test system: SK-MEL-2
SK-MEL-5 = test system: SK-MEL-5
SK-OV-3 = test system: SK-OV-3
SN12C = test system: SN12C
SNB-19 = test system: SNB-19
SNB-78 = test system: SNB-78
SR = test system: SR
SW-620 = test system: SW-620
TK-10 = test system: TK-10
U-251 = test system: U-251
UACC-257 = test system: UACC-257
UACC-62 = test system: UACC-62
XF498 = test system: XF498

In the case of CC(=O)OC1COC(N2C(=O)/C(=N\Nc3ccc([N+](=O)[O-])cc3)c3cc(Br)c([N+](=O)[O-])cc32)C(OC(C)=O)C1OC(C)=O (stereo not given), the GI50 (786-0) is reported as 42 µM (inactive), the GI50 (A549) is reported as > 100 µM (inactive) and the GI50 (ACHN) is reported as 21.6 µM (inactive). For the same compound, the GI50 (CAKI-1) was 50.4 µM (inactive), the GI50 (CCRF-CEM) was 61.5 µM (inactive) and the GI50 (COLO 205) was > 100 µM (inactive). For the same compound, the GI50 (DLD-1) was > 100 µM (inactive), the GI50 (DMS-273) was 35.2 µM (inactive) and the GI50 (EKVX) was 62.7 µM (inactive). For the same compound, the GI50 (HCC 2998) was > 100 µM (inactive), the GI50 (HCT-116) was 44.6 µM (inactive) and the GI50 (HCT-15) was 33 µM. The GI50 (HL-60) was 65.6 µM (inactive), the GI50 (HOP-18) was > 100 µM (inactive) and the GI50 (HOP-62) was 38.5 µM (inactive). For the same compound, the GI50 (HOP-92) was 8.26 µM (inactive), the GI50 (HT-29) was 74.5 µM (inactive) and the GI50 (IGROV-1) was 26.2 µM (inactive). The GI50 (K562) was 41 µM (inactive), the GI50 (KM-20L2) was 32.1 µM (inactive) and the GI50 (KM12) was 27.9 µM (inactive). The GI50 (LOX IMVI) was 51.1 µM (inactive), the GI50 (LXFL 529) was 21.8 µM (inactive) and the GI50 (M14) was 55.8 µM (inactive). For the same compound, the GI50 (M19-MEL) was > 100 µM (inactive), the GI50 (MOLT-4) was > 100 µM (inactive) and the GI50 (Malme-3M) was > 100 µM (inactive). For the same compound, the GI50 (NCI-H226) was > 100 µM (inactive), the GI50 (NCI-H23) was 31.6 µM (inactive) and the GI50 (NCI-H460) was > 100 µM (inactive). For the same compound, the GI50 (NCI-H522) was 24.1 µM (inactive), the GI50 (OVCAR-3) was > 100 µM (inactive) and the GI50 (OVCAR-4) was 32.9 µM (inactive). The GI50 (OVCAR-5) was > 100 µM (inactive), the GI50 (OVCAR-8) was > 100 µM (inactive) and the GI50 (RPMI-8226) was > 100 µM (inactive). For the same compound, the GI50 (RXF 393) was 15.5 µM (inactive), the GI50 (RXF 631) was 22.2 µM (inactive) and the GI50 (SF-268) was 26.4 µM (inactive). The GI50 (SF-295) was 21.4 µM (inactive), the GI50 (SF-539) was 68.2 µM (inactive) and the GI50 (SK-MEL-28) was > 100 µM (inactive). The GI50 (SK-MEL-2) was > 100 µM (inactive), the GI50 (SK-MEL-5) was 24.1 µM (inactive) and the GI50 (SK-OV-3) was 40.6 µM (inactive). The GI50 (SN12C) was > 100 µM (inactive), the GI50 (SNB-19) was > 100 µM (inactive) and the GI50 (SNB-78) was 27.2 µM (inactive). The GI50 (SR) was 98.9 µM (inactive), the GI50 (SW-620) was 46 µM (inactive) and the GI50 (TK-10) was > 100 µM (inactive). For the same compound, the GI50 (U-251) was 36.8 µM (inactive), the GI50 (UACC-257) was > 100 µM (inactive) and the GI50 (UACC-62) was 15.3 µM (inactive). The GI50 (XF498) was 32.8 µM (inactive).
